The test system of series [1] is P53. Kind of series: Immunoblot of P53 in A375 cells. Format: cell-based, human. As to conditions: A375, 20 µM, 48 and 72 h. Here is the method: (§1) A375 cells were seeded in 6 cm Petri dishes (190 300 cell/dish) and treated with different compounds at 10 or 20 μM. After 48- or 72-h treatment, the cells were scraped using warm 1× sample buffer (2% SDS, 10% glycerol, 50 mM Tris-HCl, 1.75% β-mercaptoethanol, and bromophenol blue) and boiled at 99 °C for 10 min. Total protein extracts were kept at −80 °C until use.
(§2) Protein extracts were analyzed with a 7.5 or 10% polyacrylamide SDS-PAGE and transferred to a polyvinylidene difluoride membrane (PVDF, Thermo Fisher Scientific, Waltham, MA, USA). The membranes were blocked at RT for 1 h with TBST buffer (10 mM Tris-HCl pH 7.5, 100 mM NaCl, 0.1% Tween20) containing 4% Milk (Formulat). […] Immuno-detection was carried out with an ECL kit (GE-Healthcare, Little Chalfont, UK), and the chemiluminescence signals were detected with ChemiDoc (Bio-Rad, Hercules, CA, USA).
Background: Immunoblotting shows a protein as a band on a membrane.

Series [2] has as its system normal human epithelial melanocyte (NHEM) cell line. Put plainly: SRB cell viability assay in NHEM cells. Format: cell-based. As to conditions: for effect on NHEM viability: 10–20 µM; for reduction of NHEM viability: 40–60 µM. The procedure: (§3) Human MeWo (HTB-65) and A375 (CRL-1619) melanoma cell lines as well as the normal human epidermal melanocyte (NHEM) (PCS-200-013) cell line (ATCC, Manassas, VA, USA) were cultured at 37 °C under 5% CO2 in a humidified atmosphere. Roswell Park Memorial Institute 1640 medium (RPMI, Gibco, Ref.21875, Thermo Scientific, Waltham, MA, USA) was used to culture MeWo cells, while Dulbecco’s Modified Eagle Medium (DMEM, Gibco, Ref. 61965, Thermo Scientific, Waltham, MA, USA) was used for A375 and NHEM cell lines. The culture media were supplemented with 10% fetal bovine serum (FBS, Gibco, Thermo Scientific, Waltham, MA, USA) plus 1% Antibiotic Antimycotic Solution (Gibco, Thermo Scientific). The MEK1 inhibitor U0126 (CAY-70970) and the PI3K inhibitor LY294002 (CAY-70920) were provided by Cayman Chemical, Ann Arbor, MI, USA.
(§4) Melanoma MeWo and A375 cells or NHEM were seeded in 96-well plates (5.0 × 10^3 cells/well for MeWo cells and 2.9 × 10^3 cells/well for A375 or NHEM). After 24-h culture, the cells were treated with different concentrations of compounds 1–7. After 72-h treatment, the cells were fixed by adding 25 µL/well of 50% (w/v) TCA directly into the culture medium. The plates were incubated at 4 °C for 1 h, washed four times with ddH2O, and dried at RT. Staining was performed by adding 50 µL/well of 0.04% (w/v) sulforhodamine B (SRB) sodium salt solution (Sigma-Aldrich, Milan, Italy). After 1-h incubation at RT, the plates were rinsed with 1% HAc and air-dried. SRB was solubilized in a 10 mM Tris-base solution pH 10.5 and Abs492 measured in the plate reader TECAN NanoQuant Infinite M200 Pro (Tecan Group Ltd., Männedorf, Switzerland). Six replicates for each condition/data point were performed.

Series [3] concerns p-Ser727-STAT3. Put plainly: Immunoblot of p-Ser727-STAT3 in A375 cells. Format: cell-based, human. The note with it: A375, 20 µM, 72 h. The procedure:
as §1, §2

The subject of series [4] is cyclin A2. Kind of series: Immunoblot of cyclin A2 in A375 cells. It is filed as cell-based, human. As to conditions: A375, 20 µM, 48 or 72 h. The procedure:
as §1, §2

The test system of series [5] is A375 melanoma cell line. Kind of series: SRB cell viability assay in A375 cells. Format: cell-based, human. As to conditions: for inhibition of melanoma cell viability: A375, 20 µM; for inhibition of melanoma cell viability / EC50: 72 h; for viability reduction in melanoma cells / EC50: A375, SRB; for viability reduction in melanoma cells: 40–60 µM; for EC50: Homo sapiens, A-375, read-out: half maximal effective concentration (EC50) able to reduce cell viability. The procedure:
In preliminary experiments, the evaluation of cell viability at different time after compound administration was carried out with sulforhodamine B (SRB) assay. Indeed, after 24-, 48-, and 72-h treatment, an evident time dependence in the inhibition of cell growth was registered (data not shown). Thus, to evaluate A375 and MeWo cell viability, we decided to perform further SRB experiments with each compound only after 72 h.
as §3, §4

For series [6], the system named is Akt. Put plainly: Immunoblot of total Akt in A375 cells. It is filed as cell-based, human. As to conditions: A375, 20 µM, 48 and 72 h. The procedure:
as §1, §2

Series [7] deals with pCdk2. Put plainly: Immunoblot of pCdk2 in A375 cells. It is filed as cell-based, human. As to conditions: A375, 20 µM, 48 or 72 h. The procedure:
as §1, §2

The subject of series [8] is Tyr705-STAT3 phosphorylation. Kind of series: Immunoblot of p-Tyr705-STAT3 in A375 cells. Format: cell-based, human. The note with it: A375, 20 µM; for STAT3 activity (tyrosine and serine phosphorylation): 48 h; for Tyr705-STAT3 phosphorylation: 72 h, vs untreated cells. Here is the method:
as §1
Protein extracts were analyzed with a 7.5 or 10% polyacrylamide SDS-PAGE and transferred to a polyvinylidene difluoride membrane (PVDF, Thermo Fisher Scientific, Waltham, MA, USA). The membranes were blocked at RT for 1 h with TBST buffer (10 mM Tris-HCl pH 7.5, 100 mM NaCl, 0.1% Tween20) containing 4% Milk (Formulat). Then, they were incubated on a shaker, overnight (ON) at 4 °C, with 5% BSA solution containing primary antibodies against p-Tyr705-STAT3 (#9145, 1:1000), pRb (#8516, 1:2000), pERK (#4370, 1:1000), pAkt (#4060, 1:2000), pSer15-P53 (#9286, 1:2000) (Cell Signaling Technology, Danvers, […], USA), Akt (GTX121937, 1:3000), ERK (GTX134452, 1:6000), Cyclin A2 (GTX-103042, 1:3000), p-Thr160Cdk2 (GTX-133862, 1:3000), p21 (GTX-629543, 1:3000) (Genetex, Alton Pkwj Irvine, CA, USA), p53 (Sc-263, 1:1000), STAT3 (Sc-482, 1:1000), and p-Ser727-STAT3 (Sc-136193, 1:1000) (Santa Cruz Biotechnology, Dallas, TX, USA). The membranes were washed three times with TBST buffer for 30 min and then incubated for 1 h with a horseradish-peroxidase-conjugated secondary antibody (anti-rabbit 1:6000, Genetex), (anti-mouse, 1:4000, Cell Signaling Technology, Danvers, […], USA). They were washed another three times for 30 min with TBST buffer. All protein extracts were normalized with a β-actin protein antibody (GTX-124214, 1:10,000; Genetex, Alton Pkwj Irvine, CA, USA). Immuno-detection was carried out with an ECL kit (GE-Healthcare, Little Chalfont, UK), and the chemiluminescence signals were detected with ChemiDoc (Bio-Rad, Hercules, CA, USA).

Series [9] deals with A375 cells. Put plainly: Wound closure cell migration assay. It is filed as cell-based, human. The note with it: A375, 20 µM, vs controls. The procedure: The wound healing assay is widely used to measure cell migration. The method is based on quantifying the rate at which cells can close an artificial scratch created in a confluent cell monolayer. A375 cells were seeded in 12-well plates (120 × 10^3 cells/well) and, once confluence was reached, the monolayer was scratched with a sterile 10 μL pipette tip. […] Then, either cryptotanshinone (4) or salviolone (7) at 10 or 20 µM was added to the culture. After 0-, 8-, 24- and 30-h culture, images were captured with Zeiss Axio Vert. (Zeiss, Milan, Italy) to measure the delay to repopulate the scratch in comparison with the non-treated control sample.

Series [10] has as its system pSer15-P53 (pP53). Put plainly: Immunoblot of pSer15-P53 in A375 cells. It is filed as cell-based, human. The note with it: A375, 20 µM, vs untreated. The procedure: as §1, §2
For series [11], the system named is P21(Cip1/Waf1). Put plainly: Immunoblot of P21 in A375 cells. It is filed as cell-based, human. As to conditions: A375, 20 µM, 48 and 72 h. Here is the method: as §1, §2

Turning to `C[C@H]1COC2=C1C(=O)C(=O)c1c2ccc2c1CCCC2(C)C` [Compound 4, cryptotanshinone], the P53 protein expression entry in series [1] is given as “significant increase”. Further, in [2], the “effect on NHEM viability” value is on record as “did not affect” and the “reduction of NHEM viability” value is 20%. In addition, in series [3], the p-Ser727-STAT3 level entry is “increase”. Also, in series [4], the “cyclin A2 expression level” value is “slightly reduced”. For the same molecule, in [5], the “inhibition of melanoma cell viability” value is recorded as “about 50%”, the “viability reduction in melanoma cells” value is 70–80% and the EC50 was ~14 µM. In series [6], the “expression level of Akt total protein” value is recorded as “not changed”. For the same molecule, the “pCdk2 (active form of Cdk2) expression level” value in series [7] is given as “slightly reduced”. In series [8], the “STAT3 activity (tyrosine and serine phosphorylation)” value is recorded as “did not significantly change”; the Tyr705-STAT3 phosphorylation entry is “significant reduction”. Also, the “A375 cell migration rate / wound healing closure” value in [9] is recorded as “slow down”. In addition, the “pSer15-P53 (pP53) expression / P53 phosphorylation level” value in [10] is listed as “no significant increase”. Also, the P21 expression level entry in [11] was “significantly increased”.

Regarding `Cc1cc2ccc3c(c2cc(O)c1=O)CCCC3(C)C` [Compound 7, salviolone], in series [1], the P53 protein expression result is reported as “significant increase”. Also, in series [2], the “effect on NHEM viability” value is given as “did not affect” and the “reduction of NHEM viability” value is listed as 20%. For the same molecule, the p-Ser727-STAT3 level entry in series [3] is recorded as “increase”. Further, the “cyclin A2 expression level” value in series [4] is “strongly reduced”. Besides, in series [5], the “inhibition of melanoma cell viability” value is listed as “about 50%”, the “viability reduction in melanoma cells” value is recorded as 70–80% and the EC50 is ~17 µM. Also, in series [6], the “expression level of Akt total protein” value was “not changed”. Further, the “pCdk2 (active form of Cdk2) expression level” value in [7] was “strongly reduced”. For the same molecule, in series [8], the “STAT3 activity (tyrosine and serine phosphorylation)” value was “did not significantly change”; the Tyr705-STAT3 phosphorylation result is given as “significant reduction”. Also, in series [9], the “A375 cell migration rate / wound healing closure” value was “did not significantly delay”. In addition, in series [10], the “pSer15-P53 (pP53) expression / P53 phosphorylation level” value is recorded as “higher”. The P21 expression level result in series [11] is on record as “strongly increased”.

The values above are taken from paper PMC8835475, “Salviolone from Salvia miltiorrhiza Roots Impairs Cell Cycle Progression, Colony Formation, and Metalloproteinase-2 Activity in A375 Melanoma Cells: Involvement of P21(Cip1/Waf1) Expression and STAT3 Phosphorylation” (International Journal of Molecular Sciences, 2022).
